{
  "source": "patent US20060188573A1",
  "about": "“Composite materials and particles” (priority 2003, published 2006)",
  "test_system": "blood",
  "test": "Blood compatibility: coagulation",
  "details": "4.0 ml blood added, circulating at 37 degrees C. for 60 minutes in heparin-coated tubes; duplicate",
  "method": "The lipid/polymer hybrid particles have been characterized with respect to coagulation and hemolyse. Briefly, the experiments were carried out as follows:\nCoagulation: Solvent/water mixture, with the same ratio used for particle formation, was used as negative control. Other samples were pure polymer, pure lipid, lipid/polymer composite particles and Taxol. Taxol was used as positive control. All experiments were carried out in dublicate.4.0 ml blood were added to each sample before the samples were circulating, at 37 degrees C. for 60 minutes, in tubes with the inside coated with heparin.",
  "data": [
    {"smiles": "CCCCCCCC/C=C\\CCCCCCCC(=O)OCC(O)CO", "note": "(stereo not shown) [pure lipid, glyceryl-mono-oleate]", "values": [
      {"measurement": "coagulation", "result": "no coagulation"}
    ]}
  ]
}
